The results in this text go back to the supplement of paper PMC10627819.

A value given as a limit tells only on which side of the number the result lay.

Test [1] concerns S. aureus DSM 20231. Briefly: Bliss interaction score (quartile over a dose matrix) (fitness difference); higher = more antagonism (negative = synergy). Summed up:
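The Bliss score was calculated by subtracting the expected fitness, the product of single-drug values, from the observed fitness. OD595 at entry into stationary phase, over the plate's robust no-drug mean and capped at 1, served as the fitness readout. Single-drug values were inferred from combination data, and scores are summarised by quartiles across technical, biological and donor/recipient replicates.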

The subject of test [2] is S. aureus DSM 20231. The experiment in a line: fitness (endpoint OD595 vs no drug) (fraction); higher = more growth. Summed up: (§1)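 Growth medium was TSB, LB Lennox or CY, and plates were kept at 37 °C. Inoculation was at OD595 0.01 in 384-well plates, at 30 µl per well or 55 µl for S. pneumoniae. OD595 was monitored every 30 min for 14 h and background-subtracted using the first reading. Fitness is the optical density on entering stationary phase divided by the robust mean of no-drug controls, with values capped at 1.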

Test [3] relates to B. subtilis 168. The description is as above. Summed up:
as §1

Test [4] relates to S. aureus Newman. Described as above. The gist of the method: as §1
[5] abbreviates: first compound 0.375 µg/mL, partner 0.0156 µg/mL.
The mark [6] stands for this setting: first compound 0.375 µg/mL, partner 0.0312 µg/mL.
Setting [7] is: first compound 0.375 µg/mL, partner 0.0625 µg/mL.
Setting [8] is: first compound 0.75 µg/mL, partner 0.0156 µg/mL.
Setting [9] is: first compound 0.75 µg/mL, partner 0.0312 µg/mL.
The mark [10] stands for this setting: first compound 0.75 µg/mL, partner 0.0625 µg/mL.
Setting [11] is: first compound 1.5 µg/mL, partner 0.0156 µg/mL.
[12] abbreviates: first compound 1.5 µg/mL, partner 0.0312 µg/mL.
Where [13] appears, read: first compound 1.5 µg/mL, partner 0.0625 µg/mL.
[14] abbreviates: first compound 0.375 µg/mL, partner 12.5 µg/mL.
The mark [15] stands for this setting: first compound 0.375 µg/mL, partner 25 µg/mL.
The mark [16] stands for this setting: first compound 0.375 µg/mL, partner 50 µg/mL.
[17] abbreviates: first compound 0.75 µg/mL, partner 12.5 µg/mL.
Where [18] appears, read: first compound 0.75 µg/mL, partner 25 µg/mL.
Setting [19] is: first compound 1.5 µg/mL, partner 12.5 µg/mL.
The mark [20] stands for this setting: first compound 1.5 µg/mL, partner 25 µg/mL.
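Wherever Bliss interaction score (quartile over a dose matrix) is given: first quartile when negative (synergy) and third quartile when positive (antagonism).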

With `CCC[C@@H]1C[C@@H](C(=O)N[C@@H]([C@H]2O[C@H](SC)[C@H](O)[C@@H](O)[C@H]2O)[C@H](C)Cl)N(C)C1` [Clindamycin] + C[C@H]1C[C@@H]2[C@H]([C@@H](O)C[C@@]3(C)[C@H]2CC[C@]3(O)C(=O)CO)[C@@]2(C)C=CC(=O)C=C12 [Methylprednisolone], the Bliss interaction score in test [1] is -0.274.

On to `CCC[C@@H]1C[C@@H](C(=O)N[C@@H]([C@H]2O[C@H](SC)[C@H](O)[C@@H](O)[C@H]2O)[C@H](C)Cl)N(C)C1` [Clindamycin] + Cc1c(Cl)cccc1Nc1ccccc1C(=O)O [Tolfenamic], for which the Bliss interaction score in test [1] was -0.169.

Consider `CCC[C@@H]1C[C@@H](C(=O)N[C@@H]([C@H]2O[C@H](SC)[C@H](O)[C@@H](O)[C@H]2O)[C@H](C)Cl)N(C)C1` [Clindamycin] + Cc1ccc(C(C)C)c(O)c1 [Thymol], for which, in test [1], the Bliss interaction score was -0.271.

In the case of `CCC[C@@H]1C[C@@H](C(=O)N[C@@H]([C@H]2O[C@H](SC)[C@H](O)[C@@H](O)[C@H]2O)[C@H](C)Cl)N(C)C1` [Clindamycin] + Nc1ccc(O)c(C(=O)O)c1 [Mesalamine], the Bliss interaction score in test [1] is -0.165.

As to `CCC[C@@H]1C[C@@H](C(=O)N[C@@H]([C@H]2O[C@H](SC)[C@H](O)[C@@H](O)[C@H]2O)[C@H](C)Cl)N(C)C1` [Clindamycin] + O=C(O)Cc1cc(I)c(Oc2ccc(O)c(I)c2)c(I)c1 [Tiratricol], in test [1], the Bliss interaction score was found to be 0.278.

Take `CCN(CC)CCOc1ccc(C(=C(Cl)c2ccccc2)c2ccccc2)cc1` [Clomiphene] + CCC(C)C1C(=O)NC(=C)C(=O)NC(C(=O)NC(CSCC(C(=O)N1)NC(=O)/C(=C/C)/NC(=O)C(C(C)CC)N)C(=O)NC2C(SCC(NC(=O)CNC(=O)C3CCCN3C2=O)C(=O)NC(CCCCN)C(=O)NC4C(SCC(NC(=O)CNC(=O)C(NC(=O)C(NC(=O)C(NC(=O)CNC4=O)C)CC(C)C)CCSC)C(=O)NC(CC(=O)N)C(=O)NC(CCSC)C(=O)NC(CCCCN)C(=O)NC5C(SCC6C(=O)NC(C(=O)NC(CSC(C(C(=O)N6)NC(=O)C(NC5=O)C)C)C(=O)NC(CO)C(=O)NC(C(C)CC)C(=O)NC(CC7=CN=CN7)C(=O)NC(C(C)C)C(=O)NC(=C)C(=O)NC(CCCCN)C(=O)O)CC8=CN=CN8)C)C)C)CC(C)C [Nisin]: the Bliss interaction score in test [1] (main component drawn) is -0.384.

Regarding `CCN(CC)CCOc1ccc(C(=C(Cl)c2ccccc2)c2ccccc2)cc1` [Clomiphene] + CN[C@@H]1[C@H](O[C@H]2[C@H](O[C@H]3[C@H](O)[C@@H](O)[C@H](N=C(N)N)[C@@H](O)[C@@H]3N=C(N)N)O[C@@H](C)[C@]2(O)C=O)O[C@@H](CO)[C@H](O)[C@H]1O [Streptomycin], the Bliss interaction score in test [1] worked out at 0.238.

As for `CCN(CC)CCOc1ccc(C(=C(Cl)c2ccccc2)c2ccccc2)cc1` [Clomiphene] + COc1cc(Cc2cnc(N)nc2N)cc(OC)c1OC [Trimethoprim], the Bliss interaction score in test [1] amounted to 0.216.

As to `CCN(CC)CCOc1ccc(C(=C(Cl)c2ccccc2)c2ccccc2)cc1` [Clomiphene] + Cn1nnc(-c2ccc(-c3ccc(N4C[C@H](CO)OC4=O)cc3F)cn2)n1 [Tedizolid], the Bliss interaction score in test [1] turned out to be 0.263.

`CCN(CC)CCOc1ccc(C(=C(Cl)c2ccccc2)c2ccccc2)cc1` [Clomiphene] + N[C@@H]1CONC1=O [CycloserineD]: the Bliss interaction score in test [1] is -0.175.

As for `CCN(CC)CCOc1ccc(C(=C(Cl)c2ccccc2)c2ccccc2)cc1` [Clomiphene] + O=C(O[C@@H]1Cc2c(O)cc(O)cc2O[C@@H]1c1cc(O)c(O)c(O)c1)c1cc(O)c(O)c(O)c1 [EGCG], the Bliss interaction score in test [1] came to 0.241.

Take `N[C@@H]1CONC1=O` [Cycloserine D] + Cc1onc(-c2ccccc2)c1C(=O)N[C@@H]1C(=O)N2[C@@H]1SC(C)(C)[C@@H]2C(=O)O [Oxacillin]: the fitness in test [2] (setting [5]) was 0.878; in test [2] (setting [6]), 0.67; in test [2] (setting [7]) it was 0.506; in test [2] (setting [8]) it was 0.906; in test [2] (setting [9]), 0.712; in test [2] (setting [10]), 0.499. For the same compound, the fitness amounted to 0.931 in test [2] (setting [11]); 0.656 in test [2] (setting [12]); 0.494 in test [2] (setting [13]); 0.973 in test [3] (first compound 0.125 µg/mL, partner 0.002 µg/mL); 0.966 in test [3] (first compound 0.125 µg/mL, partner 0.004 µg/mL); 0.99 in test [3] (first compound 0.125 µg/mL, partner 0.0078 µg/mL, one replicate). The fitness in test [3] (first compound 0.125 µg/mL, partner 0.008 µg/mL) came to 0.936; in test [3] (first compound 0.125 µg/mL, partner 0.0155 µg/mL, one replicate) it was 0.909; in test [3] (first compound 0.125 µg/mL, partner 0.031 µg/mL, one replicate) it was 0.873; in test [3] (first compound 0.125 µg/mL, partner 0.075 µg/mL, one replicate), 0.526; in test [3] (first compound 0.125 µg/mL, partner 0.15 µg/mL, one replicate), 0.0465; in test [3] (first compound 0.125 µg/mL, partner 0.3 µg/mL, one replicate), 0.0536. Also, the fitness in test [3] (first compound 0.25 µg/mL, partner 0.002 µg/mL) turned out to be 0.926; in test [3] (first compound 0.25 µg/mL, partner 0.004 µg/mL), 0.887; in test [3] (first compound 0.25 µg/mL, partner 0.0078 µg/mL, one replicate), 0.937; in test [3] (first compound 0.25 µg/mL, partner 0.008 µg/mL), 0.892; in test [3] (first compound 0.25 µg/mL, partner 0.0155 µg/mL, one replicate) it was 0.966; in test [3] (first compound 0.25 µg/mL, partner 0.031 µg/mL, one replicate) it was 0.88. Besides, the fitness came to 0.596 in test [3] (first compound 0.25 µg/mL, partner 0.075 µg/mL, one replicate); 0.0158 in test [3] (first compound 0.25 µg/mL, partner 0.15 µg/mL, one replicate); 0.0367 in test [3] (first compound 0.25 µg/mL, partner 0.3 µg/mL, one replicate); 0.906 in test [3] (first compound 0.5 µg/mL, partner 0.002 µg/mL); 0.9 in test [3] (first compound 0.5 µg/mL, partner 0.004 µg/mL); 0.973 in test [3] (first compound 0.5 µg/mL, partner 0.0078 µg/mL, one replicate). The fitness in test [3] (first compound 0.5 µg/mL, partner 0.008 µg/mL) is 0.907; in test [3] (first compound 0.5 µg/mL, partner 0.0155 µg/mL, one replicate), ≥ 1; in test [3] (first compound 0.5 µg/mL, partner 0.031 µg/mL, one replicate) it was 0.973; in test [3] (first compound 0.5 µg/mL, partner 0.075 µg/mL, one replicate) it was 0.459; in test [3] (first compound 0.5 µg/mL, partner 0.15 µg/mL, one replicate), 0.0287; in test [3] (first compound 0.5 µg/mL, partner 0.3 µg/mL, one replicate), 0.0208. The fitness in test [4] (setting [5]) was determined as 0.819; in test [4] (setting [6]), 0.716; in test [4] (setting [7]) it was 0.611; in test [4] (setting [8]), 0.779; in test [4] (setting [9]) it was 0.663; in test [4] (setting [10]), 0.611. The results for the fitness in test [4] (setting [11]), in test [4] (setting [12]) and in test [4] (setting [13]) were 0.771, 0.642 and 0.579, respectively.

As to `N[C@@H]1CONC1=O` [Cycloserine D] + O=C(O[C@@H]1Cc2c(O)cc(O)cc2O[C@@H]1c1cc(O)c(O)c(O)c1)c1cc(O)c(O)c(O)c1 [EGCG], the fitness in test [2] (setting [14]) stood at 0.785; in test [2] (setting [15]), 0.784; in test [2] (setting [16]) it was 0.776; in test [2] (setting [17]) it was 0.73; in test [2] (setting [18]), 0.772; in test [2] (setting [19]), 0.798. Also, the fitness in test [2] (setting [20]) was 0.663; in test [3] (first compound 0.125 µg/mL, partner 6.25 µg/mL), 0.934; in test [3] (first compound 0.125 µg/mL, partner 12.5 µg/mL), 0.567; in test [3] (first compound 0.25 µg/mL, partner 6.25 µg/mL), 0.898; in test [3] (first compound 0.25 µg/mL, partner 25 µg/mL), 0.289; in test [3] (first compound 0.5 µg/mL, partner 6.25 µg/mL), 0.938. The fitness in test [3] (first compound 0.5 µg/mL, partner 12.5 µg/mL) came to 0.443; in test [4] (setting [14]), 0.77; in test [4] (setting [15]), 0.765; in test [4] (setting [16]), 0.691; in test [4] (setting [17]), 0.805; in test [4] (setting [18]) it was 0.821. Besides, the fitness was 0.697 in test [4] (first compound 0.75 µg/mL, partner 50 µg/mL); 0.851 in test [4] (setting [19]); 0.779 in test [4] (setting [20]); 0.706 in test [4] (first compound 1.5 µg/mL, partner 50 µg/mL).

Regarding `N[C@@H]1CONC1=O` [CycloserineD] + Cc1c(Cl)cccc1Nc1ccccc1C(=O)O [Tolfenamic], in test [1], the Bliss interaction score was -0.218.

In the case of `N[C@@H]1CONC1=O` [CycloserineD] + O=C(O)c1cc(-c2ccc(F)cc2F)ccc1O [Diflunisal], the Bliss interaction score in test [1] was -0.151.
